How the values were obtained:
Raji [1] = experiment: Inhibition of TPA-induced EBV-early antigen activation in human Raji cells at 10 molar ratio after 48 hrs relative to TPA; values are per cent of control; conditions: human gammaherpesvirus 4
Raji [2] = experiment: Inhibition of TPA-induced EBV-early antigen activation in human Raji cells at 500 molar ratio after 48 hrs relative to TPA; values are per cent of control; conditions: human gammaherpesvirus 4
Raji [3] = experiment: Inhibition of TPA-induced EBV-early antigen activation in human Raji cells at 100 molar ratio after 48 hrs relative to TPA; values are per cent of control; conditions: human gammaherpesvirus 4
Raji [4] = experiment: Inhibition of TPA-induced EBV-early antigen activation in human Raji cells at 1000 molar ratio after 48 hrs relative to TPA; values are per cent of control; conditions: human gammaherpesvirus 4
[5] = Cytotoxicity against human Raji cells assessed as cell viability at 1000 molar ratio after 48 hrs by trypan blue assay; type: cell-based; conditions: read-out: Activity
Mus musculus [6] = experiment: Antiinflammatory activity against ICR mouse assessed as inhibition of TPA-induced ear edema compound administered topically preincubated 30 mins before TPA challenge; type: functional
Mus musculus [7] = experiment: Antiinflammatory activity against ICR mouse assessed as inhibition ratio of TPA-induced ear edema at 1 mg/ear, topically preincubated 30 mins before TPA challenge relative to TPA; type: functional; set-up: scale not given: the % may be the effect or the level left

SMILES | level, % of control (Raji [1]) | level, % of control (Raji [2]) | level, % of control (Raji [3]) | level, % of control (Raji [4]) | viability at 48 h, 1000 molar ratio [5] | ID50 (Mus musculus [6]) | Activity (Mus musculus [7])
CC1=C(/C=C/C(C)=C/C=C/C(C)=C/C=C/C=C(C)/C=C/C=C(C)/C=C/C2=C(C)CCCC2(C)C)C(C)(C)CCC1 | 100% | 34.2% | 82.1% | 8.6% |  |  | 
C[C@H](CC[C@@H](O)C(C)(C)O)[C@H]1CC[C@@]2(C)[C@@H]3C[C@@H]4O[C@]45[C@@H](CC[C@H](O[C@@H]4O[C@H](CO)[C@@H](O)[C@H](O)[C@H]4O)C5(C)C)[C@]3(C)C(=O)C[C@]12C [5ALPHA,6ALPHA-EPOXYCABENOSIDE D] | 95.3% | 28.6% | 70% | 0% | 60% |  | 
CC(C)(O)CCC(=O)[C@@](C)(O)[C@H]1[C@H](O)C[C@@]2(C)[C@@H]3CC=C4[C@@H](C=C(O[C@@H]5O[C@H](CO)[C@@H](O)[C@H](O)[C@H]5O)C(=O)C4(C)C)[C@]3(C)C(=O)C[C@]12C [BRYOAMARIDE] | 96% | 28.7% | 71.7% | 0% | 60% | 0.7 mg | 51%
C[C@H](CC[C@@H](O)C(C)(C)O)[C@H]1CC[C@@]2(C)[C@@H]3CC=C4[C@@H](CC[C@H](O)C4(C)C)[C@]3(C)C(=O)C[C@]12C [BRYODULCOSIGENIN] | 88.9% | 23.6% | 69.3% | 0% | 70% |  | 
C[C@H](CC[C@@H](O)C(C)(C)O[C@@H]1O[C@H](CO)[C@@H](O)[C@H](O)[C@H]1O)[C@H]1CC[C@@]2(C)[C@@H]3CC=C4[C@@H](CC[C@H](O)C4(C)C)[C@]3(C)C(=O)C[C@]12C [BRYONIOSIDE A] | 100% | 30.4% | 75.1% | 3.4% | 60% |  | 
C[C@H](CC[C@@H](O)C(C)(C)O)[C@H]1CC[C@@]2(C)[C@@H]3CC=C4[C@@H](CC[C@H](O[C@@H]5O[C@H](CO)[C@@H](O)[C@H](O)[C@H]5O[C@@H]5O[C@@H](C)[C@H](O)[C@@H](O)[C@H]5O)C4(C)C)[C@]3(C)C(=O)C[C@]12C [BRYONIOSIDE B] | 97.4% | 29.9% | 72.7% | 0% | 60% | 0.2 mg | 94%
CC(=O)O[C@@H]1[C@@H](O)[C@@H](O)[C@H](O[C@H]2[C@H](O[C@H]3CC[C@@H]4C(=CC[C@@H]5[C@@]4(C)C(=O)C[C@]4(C)[C@@H]([C@H](C)CC[C@@H](O)C(C)(C)O)CC[C@@]54C)C3(C)C)O[C@H](CO)[C@@H](O)[C@@H]2O)O[C@H]1C [BRYONIOSIDE C] | 100% | 30.2% | 73.5% | 0% | 60% | 0.3 mg | 83%
C[C@H](C(O)CC(O)C(C)(C)O[C@@H]1O[C@H](CO)[C@@H](O)[C@H](O)[C@H]1O)[C@H]1CC[C@@]2(C)[C@@H]3CC=C4[C@@H](CC[C@H](O)C4(C)C)[C@]3(C)C(=O)C[C@]12C (stereo not given in full) [BRYONIOSIDE E] | 100% | 37% | 77.2% | 11.6% | 60% | 0.2 mg | 94%
C[C@H](CCC(=O)C(C)(C)O)[C@H]1CC[C@@]2(C)[C@@H]3CC=C4[C@@H](CC[C@H](O[C@@H]5O[C@H](CO)[C@@H](O)[C@H](O)[C@H]5O)C4(C)C)[C@]3(C)C(=O)C[C@]12C [BRYONIOSIDE F] | 97.6% | 29.2% | 71.4% | 0% | 60% |  | 
C[C@H](CCC(=O)C(C)(C)O)[C@H]1CC[C@@]2(C)[C@@H]3CC=C4[C@@H](CC[C@H](O[C@@H]5O[C@H](CO)[C@@H](O)[C@H](O)[C@H]5O[C@@H]5O[C@@H](C)[C@H](O)[C@@H](O)[C@H]5O)C4(C)C)[C@]3(C)C(=O)C[C@]12C [BRYONIOSIDE G] | 100% | 30.6% | 74.2% | 0% | 60% | 0.2 mg | 90%
C[C@H](CCC(=O)C(C)(C)O)[C@H]1CC[C@@]2(C)[C@@H]3CC=C4[C@@H](CC[C@H](O)C4(C)C)[C@]3(C)C(=O)C[C@]12C [BRYOSIGENIN] | 92.7% | 28.9% | 73.5% | 0% | 70% |  | 
C[C@H](CC[C@@H](O)C(C)(C)O)[C@H]1CC[C@@]2(C)[C@@H]3CC=C4[C@@H](CC[C@H](O[C@@H]5O[C@H](CO)[C@@H](O)[C@H](O)[C@H]5O)C4(C)C)[C@]3(C)C(=O)C[C@]12C [CABENOSIDE D] | 94.1% | 26.1% | 69.3% | 0% | 60% | 0.6 mg | 66%
COc1ccc2c(c1)c(CC(=O)O)c(C)n2C(=O)c1ccc(Cl)cc1 [INDOMETHACIN] |  |  |  |  |  | 0.3 mg | 96%
O=c1c(O)c(-c2ccc(O)c(O)c2)oc2cc(O)cc(O)c12 [QUERCETIN] |  |  |  |  |  | 1.6 mg | 40%
